Data published in US11932653B2, “Lycorine derivative, and pharmaceutical composition and use thereof” (priority 2018, dated 2024).
“And” between values parts separate entries of the source, which are not always exact repeats. Identical values can stand only once.

What was measured:
[1] = Pharmacokinetic experiment in plasma; assay type: in vivo; conditions: male ICR mice, Compound 6 1.5 mg/kg ip
Procedure: (§1) Male ICR mice weighing 20-22 g were intraperitoneally injected with Compound 6 (1.5 mg/kg), and then blood was taken from the orbit at 5 min, 10 min, 15 min, 30 min, 1 h, 2 h, 4 h, 6 h, 8 h, 12 h, and 24 h. The heparin anticoagulant was added, placed on ice, and centrifuged at 7000 r/min for 7 min. The plasma was separated for use. 60 μl of acetonitrile was added to 20 μL of the plasma sample obtained after administration, to precipitate the protein. After high-speed centrifugation at 13300 r/min for 7 min, 60 μl of the supernatant was taken and centrifuged at 13300 r/min for 4 min. 5 μl of the supernatant was taken for UPLC/MS analysis. Plasma pharmacokinetics was analyzed by Winnolin software and fitted by a non-compartmental model.
as §1, with “Compound 20” for “Compound 6”, “protein. […]” for “protein. After high-speed centrifugation at 13300 r/min for 7 min, 60 μl of the supernatant was taken and centrifuged at 13300 r/min for 4 min. 5 μl of the supernatant was taken for UPLC/MS analysis.”

[2] = test system: EV71; test: In-vitro experiment against EV71 virus (RD cells, MTT); assay type: cell-based
Procedure: (§2) RD cells were seeded into a 96-well plate (10^4 cells/well), and infected with 100× TCID50 of EV71 viruses. After 2 hrs, various concentrations of the derivative were added. […] Uninfected cells were also given various concentrations of the derivative to determine the CC50.

[3] = Cytotoxicity in uninfected RD cells (CC50, MTT); assay type: cell-based; conditions: human, Table 1
Procedure: as §2
(§3) RD cells were seeded into a 96-well plate (10^4 cells/well), and infected with 100×TCID50 of CAV16 viruses. After 2 hrs, various concentrations of the derivative were added. […] Uninfected cells were also given various concentrations of the derivative to determine the CC50.

[4] = test system: EV71; test: Therapeutic effect on EV71-infected mice; assay type: in vivo, ICR mice; conditions: 7 days
Procedure: 10-day-old SPF grade ICR mice (female:male 1:1) were used. A placebo group and a treatment group with Compound 1 were set, each group having 10 mice. The mice were infected with the virus by intraperitoneal injection. 2 hrs after infection, the mice were administered by intraperitoneal injection. The dosage of Compound 1 was set to 1 mg/kg body weight/day. The mice in the placebo group were injected with the same dose of normal saline, and the mice in each group were administered once a day for consecutive 7 days. From the day of virus infection, the observation was made twice a day for 14 days. The weight, symptoms and survival rate of the mice were recorded.

[5] = test system: CAV16; test: In-vitro experiment against Coxsackievirus A16 (CAV16) (RD cells, MTT); assay type: cell-based, Coxsackievirus Virus A16 (CAV16)
Procedure: as §3

Molecule	t1/2z ([1]; title: metabolite of Compound 6, individual animals 1-3, 1.5 mg/kg)	t1/2z Mean ± SD ([1]; title: metabolite of Compound 6, mean of 3) [h]	EC50 ([2]; Enterovirus A, RD cells infected with 100x TCID50 EV71, compound added after 2 hrs, MTT at 48 hrs) [nM]	SI ([2]; selectivity index, EV71, RD cells)	CC50 at 48 h [3] [nM]	mortality rate ([4]; 10-day-old ICR mice infected ip with EV71, 1 mg/kg body weight/day ip, observed 14 days, placebo 100%) [%]	recovery of surviving mice ([4]; EV71-infected ICR mice, 1 mg/kg/day ip, after 14 days)	symptoms, weight loss and paralysis ([4]; EV71-infected ICR mice, 1 mg/kg/day ip, versus placebo)	EC50 ([5]; Coxsackievirus, RD cells infected with 100x TCID50 CAV16, compound added after 2 hrs, MTT at 48 hrs) [nM]	SI ([5]; selectivity index, CAV16, RD cells)
1-(4-fluoro-phenoxyacetyl)-lycorine [Compound 6]	25.719 h and 14.311 h and 26.875 h	22.3 ± 6.94	–	–	–	–	–	–	–	–
O=C(COc1ccccc1)OC1C(O)C=C2CCN3Cc4cc5c(cc4C1C23)OCO5 (stereo not shown) [Compound 1, 1-phenoxyacetyl-lycorine]	–	–	1640	72.41	119000	40	the surviving mice recover to normal after 14 days	reduced symptoms, and significantly alleviated weight loss and paralysis	1190	99.80
